Laboratory results taken from PubChem BioAssay AID2060502 (Molecular Pharmacology Branch, DTP, NCI, 2025).
pIC50: −log10 of the molar value.

Tested on: 885724-159-R-J1-PDC complex spheroid viability
Assay: Anticancer human tumor 885724-159-R-J1-PDC patient-derived pancreatic adenocarcinoma cell line growth inhibition [GQUAD]
Settings: for pIC50: curve of first compound; for viability, T/C: stronger effect = lower value
Method in brief: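 Tumor cells were grown as complex spheroids with HUVEC endothelial cells and mesenchymal stem cells as stroma. G-quadruplex stabilizers were combined with targeted agents over half-log dilutions from near the clinical Cmax, or from 10 microM.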

[1] = second compound 0.0316 µM, first compound 0.0316 µM
[2] = second compound 0.0316 µM, first compound 0.1 µM
[3] = second compound 0.0316 µM, first compound 0.316 µM
[4] = second compound 0.0316 µM, first compound 1 µM
[5] = second compound 0.0316 µM, first compound 3.16 µM
[6] = second compound 0.0316 µM, first compound 10 µM
[7] = second compound 0.1 µM, first compound 0.0316 µM
[8] = second compound 0.1 µM, first compound 0.1 µM
[9] = second compound 0.1 µM, first compound 0.316 µM
[10] = second compound 0.1 µM, first compound 1 µM
[11] = second compound 0.1 µM, first compound 3.16 µM
[12] = second compound 0.1 µM, first compound 10 µM
[13] = second compound 0.316 µM, first compound 0.0316 µM
[14] = second compound 0.316 µM, first compound 0.1 µM
[15] = second compound 0.316 µM, first compound 0.316 µM
[16] = second compound 0.316 µM, first compound 1 µM
[17] = second compound 0.316 µM, first compound 3.16 µM
[18] = second compound 0.316 µM, first compound 10 µM
[19] = second compound 1 µM, first compound 0.0316 µM
[20] = second compound 1 µM, first compound 0.1 µM
[21] = second compound 1 µM, first compound 0.316 µM
[22] = second compound 1 µM, first compound 1 µM
[23] = second compound 1 µM, first compound 3.16 µM
[24] = second compound 1 µM, first compound 10 µM
[25] = second compound 3.16 µM, first compound 0.0316 µM
[26] = second compound 3.16 µM, first compound 0.1 µM
[27] = second compound 3.16 µM, first compound 0.316 µM
[28] = second compound 3.16 µM, first compound 1 µM
[29] = second compound 3.16 µM, first compound 3.16 µM
[30] = second compound 3.16 µM, first compound 10 µM
[31] = second compound 10 µM, first compound 0.0316 µM
[32] = second compound 10 µM, first compound 0.1 µM
[33] = second compound 10 µM, first compound 0.316 µM
[34] = second compound 10 µM, first compound 1 µM
[35] = second compound 10 µM, first compound 3.16 µM
[36] = second compound 10 µM, first compound 10 µM
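Also: spheroids exposed to agents for seven days before readout.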
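For viability, T/C in this document: percent of vehicle control viability where 100% = DMSO wells.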

For COc1cc(C2c3cc4c(cc3C(OC3OC5COC(C)OC5C(O)C3O)C3COC(=O)C23)OCO4)cc(OC)c1O (stereo unspecified) + Cc1cnc(CNC(=O)c2c(=O)c3ccc(N4CCCN(C)CC4)nc3n3c2sc2ccccc23)cn1, the pIC50 (second compound 0.0316 µM) was < 5.00, the pIC50 (second compound 0.1 µM) was < 5.00 and the pIC50 (second compound 0.316 µM) was < 5.00. For the same molecule, the pIC50 (second compound 1 µM) was < 5.00, the pIC50 (second compound 3.16 µM) was < 5.00 and the pIC50 (second compound 10 µM) was < 5.00. For the same molecule, the viability, T/C [1] was 113%, the viability, T/C [2] was 98.3% and the viability, T/C [3] was 101%. The viability, T/C [4] was 91.5%, the viability, T/C [5] was 84.5% and the viability, T/C [6] was 82.4%. It also gave a viability, T/C [7] of 116%, a viability, T/C [8] of 107% and a viability, T/C [9] of 90.2%. It also gave a viability, T/C [10] of 100%, a viability, T/C [11] of 95.2% and a viability, T/C [12] of 81.9%. It also gave a viability, T/C [13] of 108%, a viability, T/C [14] of 105% and a viability, T/C [15] of 102%. The viability, T/C [16] was 91.1%, the viability, T/C [17] was 84.8% and the viability, T/C [18] was 79.3%. The viability, T/C [19] was 105%, the viability, T/C [20] was 87.2% and the viability, T/C [21] was 97.8%. It also gave a viability, T/C [22] of 89.6%, a viability, T/C [23] of 84.8% and a viability, T/C [24] of 76.1%. It also gave a viability, T/C [25] of 79.8%, a viability, T/C [26] of 81.4% and a viability, T/C [27] of 87.6%. For the same molecule, the viability, T/C [28] was 84.2%, the viability, T/C [29] was 83.5% and the viability, T/C [30] was 71.1%. The viability, T/C [31] was 81.7%, the viability, T/C [32] was 79.5% and the viability, T/C [33] was 76.7%. The viability, T/C [34] was 82.4%, the viability, T/C [35] was 78.3% and the viability, T/C [36] was 70.7%.
Cc1cccc(N(C)C(=O)C2C(O)CCN2c2nc(C)cc(C(F)(F)F)c2C#N)c1 (stereo unspecified) + Cc1cnc(CNC(=O)c2c(=O)c3ccc(N4CCCN(C)CC4)nc3n3c2sc2ccccc23)cn1 was tested, and the pIC50 (second compound 0.0316 µM) was < 5.00, the pIC50 (second compound 0.1 µM) was < 5.00 and the pIC50 (second compound 0.316 µM) was < 5.00. For the same molecule, the pIC50 (second compound 1 µM) was < 5.00, the pIC50 (second compound 3.16 µM) was < 5.00 and the pIC50 (second compound 10 µM) was < 5.00. The viability, T/C [1] was 93.7%, the viability, T/C [2] was 107% and the viability, T/C [3] was 108%. For the same molecule, the viability, T/C [4] was 99.7%, the viability, T/C [5] was 104% and the viability, T/C [6] was 96.9%. For the same molecule, the viability, T/C [7] was 107%, the viability, T/C [8] was 106% and the viability, T/C [9] was 112%. It also gave a viability, T/C [10] of 98.6%, a viability, T/C [11] of 91.8% and a viability, T/C [12] of 108%. It also gave a viability, T/C [13] of 103%, a viability, T/C [14] of 84% and a viability, T/C [15] of 89.3%. For the same molecule, the viability, T/C [16] was 93.9%, the viability, T/C [17] was 101% and the viability, T/C [18] was 82.5%. For the same molecule, the viability, T/C [19] was 83.6%, the viability, T/C [20] was 95.6% and the viability, T/C [21] was 88.3%. The viability, T/C [22] was 88.4%, the viability, T/C [23] was 93.9% and the viability, T/C [24] was 94.3%. The viability, T/C [25] was 84%, the viability, T/C [26] was 70.5% and the viability, T/C [27] was 79.1%. It also gave a viability, T/C [28] of 72.8%, a viability, T/C [29] of 79.4% and a viability, T/C [30] of 73.3%. The viability, T/C [31] was 92.7%, the viability, T/C [32] was 90.9% and the viability, T/C [33] was 84.8%. For the same molecule, the viability, T/C [34] was 72.6%, the viability, T/C [35] was 103% and the viability, T/C [36] was 84.3%.
With Cn1ncnc1[C@H]1c2n[nH]c(=O)c3cc(F)cc(c23)N[C@@H]1c1ccc(F)cc1 + Cc1cnc(CNC(=O)c2c(=O)c3ccc(N4CCCN(C)CC4)nc3n3c2sc2ccccc23)cn1 the pIC50 (second compound 0.0316 µM) was < 6.50, the pIC50 (second compound 0.1 µM) was < 6.50 and the pIC50 (second compound 0.316 µM) was < 6.50. For the same molecule, the pIC50 (second compound 1 µM) was < 6.50, the pIC50 (second compound 3.16 µM) was < 6.50 and the pIC50 (second compound 10 µM) was < 6.50. The viability, T/C (second compound 0.0316 µM, first compound 0.000999 µM) was 90.3%, the viability, T/C (second compound 0.0316 µM, first compound 0.00316 µM) was 107% and the viability, T/C (second compound 0.0316 µM, first compound 0.00999 µM) was 96.3%. For the same molecule, the viability, T/C [1] was 108%, the viability, T/C (second compound 0.0316 µM, first compound 0.0999 µM) was 90.3% and the viability, T/C [3] was 92.7%. It also gave a viability, T/C (second compound 0.1 µM, first compound 0.000999 µM) of 117%, a viability, T/C (second compound 0.1 µM, first compound 0.00316 µM) of 115% and a viability, T/C (second compound 0.1 µM, first compound 0.00999 µM) of 97.1%. It also gave a viability, T/C [7] of 100%, a viability, T/C (second compound 0.1 µM, first compound 0.0999 µM) of 98.8% and a viability, T/C [9] of 92.2%. For the same molecule, the viability, T/C (second compound 0.316 µM, first compound 0.000999 µM) was 90.1%, the viability, T/C (second compound 0.316 µM, first compound 0.00316 µM) was 94.5% and the viability, T/C (second compound 0.316 µM, first compound 0.00999 µM) was 104%. The viability, T/C [13] was 96.3%, the viability, T/C (second compound 0.316 µM, first compound 0.0999 µM) was 96.6% and the viability, T/C [15] was 98.7%. For the same molecule, the viability, T/C (second compound 1 µM, first compound 0.000999 µM) was 86.8%, the viability, T/C (second compound 1 µM, first compound 0.00316 µM) was 85.6% and the viability, T/C (second compound 1 µM, first compound 0.00999 µM) was 82.3%. The viability, T/C [19] was 79.2%, the viability, T/C (second compound 1 µM, first compound 0.0999 µM) was 87.4% and the viability, T/C [21] was 84.2%. It also gave a viability, T/C (second compound 3.16 µM, first compound 0.000999 µM) of 79.8%, a viability, T/C (second compound 3.16 µM, first compound 0.00316 µM) of 76.1% and a viability, T/C (second compound 3.16 µM, first compound 0.00999 µM) of 78.9%. For the same molecule, the viability, T/C [25] was 76.1%, the viability, T/C (second compound 3.16 µM, first compound 0.0999 µM) was 81% and the viability, T/C [27] was 72.6%. The viability, T/C (second compound 10 µM, first compound 0.000999 µM) was 82.4%, the viability, T/C (second compound 10 µM, first compound 0.00316 µM) was 88.2% and the viability, T/C (second compound 10 µM, first compound 0.00999 µM) was 83%. For the same molecule, the viability, T/C [31] was 89.4%, the viability, T/C (second compound 10 µM, first compound 0.0999 µM) was 105% and the viability, T/C [33] was 94.6%.
